Data from patent US10913738B2 (BRISTOL-MYERS SQUIBB COMPANY, priority 2017, dated 2021).
Like-named read-outs stand apart in the source and are kept apart here.

What was measured:
[1] = molecular target: T1, His-GST-TVMV-hRIPK1(1-324) (Homo sapiens, UniProt Q13546); assay: RIPK1 HTRF Binding Assay
T1 construct: The coding region of human RIPK1(1-324) flanked by NdeI site at 5′ end; made in house; host or cells: Spodoptera frugiperda (Sf9) insect cells, baculovirus
T1 sequence (Q13546 1-324): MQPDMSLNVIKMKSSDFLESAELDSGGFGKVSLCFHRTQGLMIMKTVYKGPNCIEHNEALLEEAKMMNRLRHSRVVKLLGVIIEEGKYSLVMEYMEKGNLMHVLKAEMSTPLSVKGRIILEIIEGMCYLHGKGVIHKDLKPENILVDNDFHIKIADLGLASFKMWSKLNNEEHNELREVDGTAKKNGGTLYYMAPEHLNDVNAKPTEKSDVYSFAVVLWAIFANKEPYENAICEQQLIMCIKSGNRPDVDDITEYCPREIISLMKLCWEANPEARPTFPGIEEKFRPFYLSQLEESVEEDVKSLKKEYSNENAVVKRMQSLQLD

[2] = test system: MLKL phosphorylation in HT29-L23 human colorectal adenocarcinoma cells; assay: MLKL Phosphorylation High-Content Assay; type: cell-based; settings: Homo sapiens
Procedure, shortened: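 IC50 and Ymax obtained by 4-parameter logistic fitting of MLKL phosphorylation, measured as mean circ-ring average intensity ratio from high-content images. Staining used an anti-phospho-S358 MLKL antibody overnight at 4° C., following six-hour cell incubation at 37° C.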

[3] = x marks IC50 class 20-200 nM, read-out: RIPK1 HTRF binding 20-200 nM
[4] = x marks IC50 class >200 nM, read-out: pMLKL cell activity >200 nM
[5] = x marks IC50 class <20 nM, read-out: RIPK1 HTRF binding <20 nM
[6] = x marks IC50 class 20-200 nM, read-out: pMLKL cell activity 20-200 nM
[7] = x marks IC50 class <20 nM, read-out: pMLKL cell activity <20 nM

SMILES	IC50 [1, 3]	IC50 [2, 4]	IC50 [1, 5]	IC50 [2, 6]	IC50 [2, 7]
Cc1ccc(-c2ccn3nc(N)nc3c2)nc1C(=O)NCc1cc(OC(F)(F)F)ccc1F [Example 405, 6-(2-amino-[1,2,4]triazolo[1,5-a]pyridin-7-yl)-N-(2-fluoro-5-(trifluoromethoxy)benzyl)-3-methylpicolinamide]	20 to 200 nM	> 200 nM	–	–	–
COc1ncc(-c2ccn3nc(N)nc3c2)cc1C(=O)NCc1cccc(OCC2CCC2)c1 [Example 46, 5-{2-Amino-[1,2,4]triazolo[1,5-a]pyridin-7-yl}-N-{[3-(cyclobutylmethoxy)phenyl]methyl}-2-methoxypyridine-3-carboxamide]	20 to 200 nM	> 200 nM	–	–	–
COc1ncc(-c2ccn3nc(N)nc3c2)cc1C(=O)NCc1ccccc1OCC(F)(F)F [Example 343, 5-(2-amino-[1,2,4]triazolo[1,5-a]pyridin-7-yl)-2-methoxy-N-(2-(2,2,2-trifluoroethoxy)benzyl)nicotinamide]	–	–	< 20 nM	20 to 200 nM	–
COc1nc(C)c(-c2ccn3nc(N)nc3c2)cc1C(=O)NCc1cc(C(F)(F)F)ccc1F [Example 197, 5-{2-amino-[1,2,4]triazolo[1,5-a]pyridin-7-yl}-N-{[2-fluoro-5-(trifluoromethyl)phenyl]methyl}-2-methoxy-6-methylpyridine-3-carboxamide]	–	–	< 20 nM	20 to 200 nM	–
Cc1ncc(-c2ccn3nc(N)nc3c2)cc1C(=O)NCc1cc(F)cc(F)c1OC1CC1 [Example 308, 5-(2-amino-[1,2,4]triazolo[1,5-a]pyridin-7-yl)-N-(2-cyclopropoxy-3,5-difluorobenzyl)-2-methylnicotinamide]	20 to 200 nM	–	–	20 to 200 nM	–
COc1nc(C)c(-c2ccn3nc(N)nc3c2)cc1C(=O)NCc1cccc(OCC2CC2)c1 [Example 200, 5-{2-amino-[1,2,4]triazolo[1,5-a]pyridin-7-yl}-N-{[3-(cyclopropylmethoxy)phenyl]methyl}-2-methoxy-6-methylpyridine-3-carboxamide]	20 to 200 nM	–	–	20 to 200 nM	–
CC(CCNC(=O)c1cc(-c2ccn3nc(N)nc3c2)cnc1Cl)c1ccccc1 (stereo not shown) [Example 169, 5-{2-amino-[1,2,4]triazolo[1,5-a]pyridin-7-yl}-2-chloro-N-(3-phenylbutyl)pyridine-3-carboxamide]	20 to 200 nM	> 200 nM	–	–	–
[2H]C([2H])(NC(=O)c1cc(-c2ccn3nc(N)nc3c2)c(C)nc1OC)c1cccc(C(F)(F)F)c1 [Example 335, 5-(2-amino-[1,2,4]triazolo[1,5-a]pyridin-7-yl)-2-methoxy-6-methyl-N-((3-(trifluoromethyl)phenyl)methyl-d2)nicotinamide]	20 to 200 nM	–	–	20 to 200 nM	–
COc1ncc(-c2ccn3nc(N)nc3c2)cc1C(=O)NCc1cnccc1OC1CCCC1 [Example 21, 5-{2-Amino-[1,2,4]triazolo[1,5-a]pyridin-7-yl}-N-{[4-(cyclopentyloxy)pyridin-3-yl]methyl}-2-methoxypyridine-3-carboxamide]	–	–	< 20 nM	20 to 200 nM	–
Nc1nc2cc(-c3cc(C(=O)NCc4ccccc4Sc4ccccc4CO)c4cc(F)ccc4n3)ccn2n1 [Example 60, 2-{2-Amino-[1,2,4]triazolo[1,5-a]pyridin-7-yl}-6-fluoro-N-[(2-{[2-(hydroxymethyl)phenyl]sulfanyl}phenyl)methyl]quinoline-4-carboxamide]	20 to 200 nM	> 200 nM	–	–	–
COc1nc(C)c(-c2ccn3nc(N)nc3c2)cc1C(=O)NCc1ccccc1OCC(F)(F)F [Example 332, 5-(2-amino-[1,2,4]triazolo[1,5-a]pyridin-7-yl)-2-methoxy-6-methyl-N-(2-(2,2,2-trifluoroethoxy)benzyl)nicotinamide]	–	–	< 20 nM	20 to 200 nM	–
COc1ccc(CC2CCCN(C(=O)c3cc(-c4ccn5nc(N)nc5c4)cnc3OC)C2)cc1 (stereo not shown) [Example 120, 7-(6-methoxy-5-{3-[(4-methoxyphenyl)methyl]piperidine-1-carbonyl}pyridin-3-yl)-[1,2,4]triazolo[1,5-a]pyridin-2-amine]	20 to 200 nM	–	–	20 to 200 nM	–
[2H]C([2H])(NC(=O)c1cc(-c2ccn3nc(N)nc3c2)cnc1OC)c1cc(OC(F)(F)F)ccc1F [Example 87, 5-{2-amino-[1,2,4]triazolo[1,5-a]pyridin-7-yl}-N-{[2-fluoro-5-(trifluoromethoxy)phenyl] (deutero)methyl}-2-methoxypyridine-3-carboxamide]	–	–	< 20 nM	20 to 200 nM	–
C[C@@H](NC(=O)c1cnc(Cl)c(-c2ccn3nc(N)nc3c2)c1)c1ccccc1OC(F)(F)F [Example 370, (R)-5-(2-amino-[1,2,4]triazolo[1,5-a]pyridin-7-yl)-6-chloro-N-(1-(2-(trifluoromethoxy)phenyl)ethyl)nicotinamide]	–	–	< 20 nM	20 to 200 nM	–
COc1nc(C)c(-c2ccn3nc(N)nc3c2)cc1C(=O)NC(C)c1ccccc1OC(F)(F)F (stereo not shown) [Example 205, 5-{2-amino-[1,2,4]triazolo[1,5-a]pyridin-7-yl}-2-methoxy-6-methyl-N-{1-[2-(trifluoromethoxy)phenyl]ethyl}pyridine-3-carboxamide]	–	–	< 20 nM	–	< 20 nM
CCOc1ncc(-c2ccn3nc(N)nc3c2)cc1C(=O)NCCC(C)c1ccccc1 (stereo not shown) [Example 280, 5-{2-amino-[1,2,4]triazolo[1,5-a]pyridin-7-yl}-2-ethoxy-N-(3-phenylbutyl)pyridine-3-carboxamide]	–	–	< 20 nM	20 to 200 nM	–
COc1nc(C)c(-c2ccn3nc(N)nc3c2)cc1C(=O)NCc1ccccc1COC(C)C [Example 330, 5-(2-amino-[1,2,4]triazolo[1,5-a]pyridin-7-yl)-N-(2-(isopropoxymethyl)benzyl)-2-methoxy-6-methylnicotinamide]	–	–	< 20 nM	20 to 200 nM	–
COc1nc(C)c(-c2ccn3nc(N)nc3c2)cc1C(=O)NCc1ccccc1OCC1CC(=O)C1 [Example 3, 5-{2-Amino-[1,2,4]triazolo[1,5-a]pyridin-7-yl}-2-methoxy-6-methyl-N-({2-[(3-oxocyclobutyl)methoxy]phenyl}methyl)pyridine-3-carboxamide]	20 to 200 nM	–	–	20 to 200 nM	–
COc1nc(C)c(-c2ccn3nc(N)nc3c2)cc1C(=O)NCc1cc(F)ccc1OC(F)(F)F [Example 329, 5-(2-amino-[1,2,4]triazolo[1,5-a]pyridin-7-yl)-N-(5-fluoro-2-(trifluoromethoxy)benzyl)-2-methoxy-6-methylnicotinamide]	–	–	< 20 nM	20 to 200 nM	–
COc1ncc(-c2ccn3nc(N)nc3c2)cc1C(=O)NCc1cc(F)ccc1OC(C)C [Example 31, 5-{2-Amino-[1,2,4]triazolo[1,5-a]pyridin-7-yl}-N-{[5-fluoro-2-(propan-2-yloxy)phenyl]methyl}-2-methoxypyridine-3-carboxamide]	–	–	< 20 nM	20 to 200 nM	–
CCOc1ncc(-c2ccn3nc(N)nc3c2)cc1C(=O)NCc1c(F)cc(F)cc1OCC1CCCC1 [Example 13, 5-{2-Amino-[1,2,4]triazolo[1,5-a]pyridin-7-yl}-N-{[2-(cyclopentylmethoxy)-4,6-difluorophenyl]methyl}-2-ethoxypyridine-3-carboxamide]	20 to 200 nM	> 200 nM	–	–	–
[2H]C([2H])([2H])[C@@H](NC(=O)c1cc(-c2ccn3nc(N)nc3c2)cnc1C)c1cc(OC(F)(F)F)ccc1F [Example 299, (R)-5-(2-amino-[1,2,4]triazolo[1,5-a]pyridin-7-yl)-N-(1-(2-fluoro-5-(trifluoromethoxy)phenyl)ethyl-2,2,2-d3)-2-methylnicotinamide]	–	–	< 20 nM	–	< 20 nM
COc1ncc(-c2ccn3nc(N)nc3c2)cc1C(=O)NCc1cc(F)cc(F)c1OC(C)C [Example 22, 5-{2-Amino-[1,2,4]triazolo[1,5-a]pyridin-7-yl}-N-{[3,5-difluoro-2-(propan-2-yloxy)phenyl]methyl}-2-methoxypyridine-3-carboxamide]	–	–	< 20 nM	–	< 20 nM
Cc1cnc(-c2ccn3nc(N)nc3c2)nc1C(=O)NCC[C@H](O)c1ccc(Cl)cc1 [Example 410, (S)-2-(2-amino-[1,2,4]triazolo[1,5-a]pyridin-7-yl)-N-(3-(4-chlorophenyl)-3-hydroxypropyl)-5-methylpyrimidine-4-carboxamide]	20 to 200 nM	–	–	20 to 200 nM	–
COc1ncc(-c2ccn3nc(N)nc3c2)cc1C(=O)N1CCCC(Cc2ccc(Cl)cc2)C1 (stereo not shown) [Example 117, 7-(5-{3-[(4-chlorophenyl)methyl]piperidine-1-carbonyl}-6-methoxypyridin-3-yl)-[1,2,4]triazolo[1,5-a]pyridin-2-amine]	20 to 200 nM	> 200 nM	–	–	–
Cc1ncc(-c2ccn3nc(N)nc3c2)cc1C(=O)NCc1ccccc1OCC1CC1 [Example 250, 5-{2-amino-[1,2,4]triazolo[1,5-a]pyridin-7-yl}-N-{[2-(cyclopropylmethoxy)phenyl]methyl}-2-methylpyridine-3-carboxamide]	–	–	< 20 nM	20 to 200 nM	–
